Experimental data from patent US7534436B2, “Peptide fragments of the harp factor inhibiting angiogenesis” (Centre National de la Recherche Scientifique (C.N.R.S.), priority 2002, dated 2009).
Where a SMILES comes first, the peptide text is derived from it.

How the values were obtained:
[1] = tested on: NIH 3T3 cells stimulated by HARP; settings: 24 h, 10 μM
Experimental: After 24 hours' incubation the cellular proliferation is estimated by measurement of the tritiated thymidine incorporated by the cells.
Fibroblast cells of type NIH 3T3 are cultured at a density of 3×10^4 cells per cm^2 in DMEM culture medium supplemented with 10% of foetal calf serum. […] After this period of incubation, 0.5 μCi of [methyl-^3H]thymidine is added and 6 hours afterwards the cells are fixed by a 10% solution of trichloroacetic acid. The radioactivity incorporated by the cells is then counted by liquid scintillation after having effected a cell lysis with a solution of sodium hydroxide at a concentration of 0.1 N.

[2] = tested on: angiogenesis induced by FGF-2; assay: In vivo Matrigel angiogenesis model, angiogenesis induced by FGF-2 (specificity control); design: species or system Swiss mice; settings: peptide 1 μM with FGF-2 10 nM in Matrigel; day 7
Experimental: (§1) FIG. 6 represents the inhibition by the HARP peptides 13-39 and 65-97 of the angiogenesis induced by HARP in an in vivo model. Three hundred microlitres of Matrigel® incubated with 5 nM of HARP in the presence or absence of the HARP peptides 13-39 and 65-97 used at a concentration of 1 μM are injected subcutaneously into a mouse. The control of the experiment is achieved using FGF-2. Seven days later the mice are sacrificed and the Matrigel® is removed. Sections having a thickness of 8 μM are produced. The sections are then stained with Trichrome from Gomori. The number of cells which have invaded the Matrigel® is quantified by image analysis with NIH software. The results represent the mean value of an analysis of 7 sections per mouse (n=4 mice/group). The bars represent the standard margins for error (**, p<0.01).
(§2) This experiment was carried out using an in vivo angiogenesis model in mice. This experimental model consists in injecting Matrigel® containing a substance to be analysed for its angiogenesis stimulating or inhibiting properties. […]
(§3) The mice are sacrificed seven days after the injection of the Matrigel®. […] The number of endothelial cells which have invaded the Matrigel® is quantified by image analysis using NIH imaging software.

[3] = tested on: endothelial cells which have invaded the Matrigel; assay: In vivo Matrigel angiogenesis model, substance used alone; design: species or system Swiss mice; settings: day 7; for effect on angiogenesis when peptide used alone: peptide 1 μM alone in Matrigel; for increase in the number of endothelial cells by comparison with Matrigel used by itself: HARP 5 nM or FGF-2 10 nM in Matrigel
Experimental: as §1
This experiment was carried out using an in vivo angiogenesis model in mice. This experimental model consists in injecting Matrigel® containing a substance to be analysed for its angiogenesis stimulating or inhibiting properties. Four Swiss mice (Janvier, Genest St Isle, France) per group are injected with 300 μl of Matrigel® previously incubated with either 5 nM of HARP, 1 μM of HARP peptide 13-39 or 65-97, or with a mixture of HARP (5 nM) and HARP peptides 13-39 or 65-97 (1 μM). The control of the specificity of the inhibition is carried out using another angiogenic factor, FGF-2, tested either by itself at a concentration of 10 nM or supplemented by the HARP peptides 13-39 or 65-97 used at a concentration of 1 μM.
The mice are sacrificed seven days after the injection of the Matrigel®. This latter is removed and frozen in liquid nitrogen. Sections 8 μM thick are then effected with a cryostat. The sections are then stained with Trichrome from Gomori. The number of endothelial cells which have invaded the Matrigel® is quantified by image analysis using NIH imaging software.

[4] = tested on: angiogenesis induced by HARP; assay: In vivo Matrigel angiogenesis model, angiogenesis induced by HARP; design: species or system Swiss mice; settings: peptide 1 μM with HARP 5 nM in Matrigel, subcutaneous; day 7
Experimental: as §1, §2, §3

[5] = Bernard-Pierrot et al 2002; cited from earlier work
[6] = tested on: endothelial cells in the tumour (PC3); assay: Tumour angiogenesis in PC3 tumours of nude mice (isolectin B4 staining of endothelial cells, image analysis); format: in vivo; settings: day 27; 5 mg/kg daily injection in the region of the tumour
Experimental: Two million PC3 cells are injected into groups of mice treated or not by daily injection in the region of the tumour with PBS (control) or with the peptide 111-136 at a concentration of 5 mg/kg. The mice are sacrificed on day 27. The quantification of the angiogenesis is effected on a section after immunohistological analysis using isolectine Bandeiraea Simplicifolia as a specific marker of the endothelial cells and image analysis. The values presented in the histogram represent the mean value obtained by analysing three independent sections resulting from each of six tumours obtained in each condition.
On day 27, the tumours are removed and freezing sections of 5 μm are produced. […] This lectin is then detected by immunomarking with the aid of a sandwich of specific antibodies marked with alkaline phosphatase. After incubation with a substrate of alkaline phosphatase (Vector Red substrate), the endothelial cells are stained red. The quantification of the number of endothelial cells in the tumour is carried out by image analysis (NIH image) by analysing the 6 tumours on 3 independent sections of one and the same tumour.

[7] = tested on: PC3 cells (line resulting from prostate cancer); assay: Tumour growth after injection of PC3 cells into nude mice; format: in vivo; settings: 5 mg/kg daily injection in the region of the tumour
Experimental: Two million PC3 cells are injected into groups of 5 nude mice treated or not by daily injection in the region of the tumour with PBS (control) or with the HARP peptide 111-136 at a concentration of 5 mg/kg. The tumour growth for each group of animals is evaluated by measurement of the size of the tumour on day 9, 13, 16, 20, 23 and 27.
The capacity of the peptide P111-136 (SEQ ID NO: 4) to inhibit tumour angiogenesis has been tested by inducing tumour growth by injection of PC3 cells into nude mice in the presence or absence of peptide P111-136. 2×10^6 PC3 cells are injected into groups of 5 nude mice (nude/nude, Laboratoire IFFA CREDO) treated or not by injection in the region of the tumour of 100 μl per day of a solution of PBS (control group) or by a solution of peptide P111-136 diluted in PBS at a concentration of 5 mg/kg. On day 9, 13, 16, 20, 23 and 27 the size of the tumour is measured with the aid of a calliper gauge. The results are presented in FIG. 3 and indicate that the HARP peptide 111-136 used at a dose of 5 mg per kg induces an inhibition of the growth of the tumours.

[8] = target: anaplastic lymphoma kinase (ALK) (Homo sapiens, UniProt Q9UM73); settings: high affinity tyrosine kinase receptor; Stoica et al, 2001; cited from earlier work
Sequence of anaplastic lymphoma kinase (ALK) (Q9UM73 19-1620, species assumed): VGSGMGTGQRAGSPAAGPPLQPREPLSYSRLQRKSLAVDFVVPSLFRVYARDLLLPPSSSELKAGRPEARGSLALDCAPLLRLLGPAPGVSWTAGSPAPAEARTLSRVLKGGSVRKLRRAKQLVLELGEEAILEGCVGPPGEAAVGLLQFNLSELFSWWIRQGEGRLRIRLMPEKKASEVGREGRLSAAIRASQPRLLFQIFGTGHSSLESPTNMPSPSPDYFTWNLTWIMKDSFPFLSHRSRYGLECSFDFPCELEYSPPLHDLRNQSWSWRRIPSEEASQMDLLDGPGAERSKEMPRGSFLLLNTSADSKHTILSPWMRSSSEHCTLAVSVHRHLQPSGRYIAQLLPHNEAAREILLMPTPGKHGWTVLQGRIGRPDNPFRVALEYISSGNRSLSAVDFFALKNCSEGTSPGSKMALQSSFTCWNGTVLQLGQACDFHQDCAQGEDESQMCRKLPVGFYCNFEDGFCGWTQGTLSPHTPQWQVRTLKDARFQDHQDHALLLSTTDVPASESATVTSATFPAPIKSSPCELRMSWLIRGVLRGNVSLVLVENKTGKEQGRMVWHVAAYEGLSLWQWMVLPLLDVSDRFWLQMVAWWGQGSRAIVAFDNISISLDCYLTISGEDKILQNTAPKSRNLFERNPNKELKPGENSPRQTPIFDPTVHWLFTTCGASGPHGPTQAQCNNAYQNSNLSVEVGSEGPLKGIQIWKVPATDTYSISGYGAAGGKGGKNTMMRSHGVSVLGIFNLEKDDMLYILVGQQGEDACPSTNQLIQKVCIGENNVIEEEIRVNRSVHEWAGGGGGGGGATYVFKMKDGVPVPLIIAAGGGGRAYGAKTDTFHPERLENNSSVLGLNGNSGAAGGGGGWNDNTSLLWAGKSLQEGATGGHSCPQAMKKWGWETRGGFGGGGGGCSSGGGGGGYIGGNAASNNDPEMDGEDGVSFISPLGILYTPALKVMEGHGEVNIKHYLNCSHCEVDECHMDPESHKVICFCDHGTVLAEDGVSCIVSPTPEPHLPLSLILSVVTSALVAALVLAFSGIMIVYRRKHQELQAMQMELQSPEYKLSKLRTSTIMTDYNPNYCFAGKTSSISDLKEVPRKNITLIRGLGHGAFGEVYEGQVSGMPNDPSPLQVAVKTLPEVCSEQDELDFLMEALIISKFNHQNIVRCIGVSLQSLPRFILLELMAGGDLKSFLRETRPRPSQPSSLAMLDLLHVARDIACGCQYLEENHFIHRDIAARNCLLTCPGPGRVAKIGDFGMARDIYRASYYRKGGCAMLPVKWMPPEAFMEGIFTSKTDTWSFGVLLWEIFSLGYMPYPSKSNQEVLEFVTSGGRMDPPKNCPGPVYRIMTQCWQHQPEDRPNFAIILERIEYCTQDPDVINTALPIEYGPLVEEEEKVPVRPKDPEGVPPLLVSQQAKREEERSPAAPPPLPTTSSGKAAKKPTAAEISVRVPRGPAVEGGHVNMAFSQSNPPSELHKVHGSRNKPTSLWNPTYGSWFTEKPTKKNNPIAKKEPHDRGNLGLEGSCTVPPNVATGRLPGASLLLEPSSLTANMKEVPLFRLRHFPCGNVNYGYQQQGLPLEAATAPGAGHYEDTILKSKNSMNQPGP

Molecule: CC(C)C[C@H](NC(=O)CNC(=O)[C@H](CS)NC(=O)[C@H](CC(=O)O)NC(=O)CNC(=O)[C@H](CO)NC(=O)[C@@H](NC(=O)[C@@H]1CCCN1C(=O)[C@@H](NC(=O)[C@H](CS)NC(=O)[C@@H](NC(=O)[C@H](CO)NC(=O)[C@H](Cc1c[nH]c2ccccc12)NC(=O)[C@H](CCC(N)=O)NC(=O)[C@H](Cc1c[nH]c2ccccc12)NC(=O)[C@H](CCC(=O)O)NC(=O)CNC(=O)[C@H](CS)NC(=O)[C@H](CC(=O)O)NC(=O)[C@@H](N)CO)C(C)C)C(C)C)[C@@H](C)O)C(=O)NCC(=O)N[C@H](C(=O)N[C@@H](CCCNC(=N)N)C(=O)N[C@@H](CCC(=O)O)C(=O)NCC(=O)N[C@H](C(=O)N[C@@H](CCCNC(=N)N)C(=O)N[C@H](C(=O)O)[C@@H](C)O)[C@@H](C)O)[C@@H](C)O [peptide 13-39] (H-SDCGEWQWSVCVPTSGDCGLGTREGTRT-OH; N-terminus and C-terminus assumed)
- inhibition of the HARP activity (induction of cell proliferation) [1]: 60%
- effect on angiogenesis induced by FGF-2 [2]: no effect
- effect on angiogenesis when peptide used alone [3]: No significant effect
- effect on angiogenesis induced by HARP [4]: totally inhibit

Molecule: CC(C)C[C@H](NC(=O)[C@H](C)NC(=O)[C@H](CCCNC(=N)N)NC(=O)[C@H](CCCCN)NC(=O)[C@H](CC(C)C)NC(=O)[C@H](CO)NC(=O)CNC(=O)[C@@H](NC(=O)[C@H](CCCNC(=N)N)NC(=O)[C@@H](NC(=O)[C@H](CCCCN)NC(=O)[C@H](CC(C)C)NC(=O)[C@H](C)NC(=O)[C@@H](NC(=O)[C@H](CC(N)=O)NC(=O)[C@H](CC(C)C)NC(=O)[C@H](CC(=O)O)NC(=O)[C@H](CS)NC(=O)[C@H](CCC(=O)O)NC(=O)CNC(=O)[C@H](Cc1c[nH]c2ccccc12)NC(=O)[C@H](C)NC(=O)[C@H](CCC(N)=O)NC(=O)[C@H](Cc1ccccc1)NC(=O)[C@H](CCC(N)=O)NC(=O)[C@H](Cc1ccc(O)cc1)NC(=O)[C@H](CCCCN)NC(=O)[C@H](CS)NC(=O)[C@H](CCC(=O)O)NC(=O)[C@H](C)N)[C@@H](C)O)[C@@H](C)O)[C@@H](C)O)C(=O)N[C@@H](Cc1c[nH]cn1)C(=O)N[C@@H](CC(N)=O)C(=O)N[C@@H](C)C(=O)O [peptide 65-97] (H-AECKYQFQAWGECDLNTALKTRTGSLKRALHNA-OH; N-terminus and C-terminus assumed)
- effect on angiogenesis induced by FGF-2 [2]: no effect
- effect on angiogenesis when peptide used alone [3]: No significant effect
- effect on angiogenesis induced by HARP [4]: totally inhibit

Molecule: FGF-2: another angiogenic factor, used as control of the specificity of the inhibition
- increase in the number of endothelial cells by comparison with Matrigel used by itself [3]: 5.8 times

Molecule: KLTKPKPQAESKKKKKEGKKQEKMLD (listed as Homo sapiens) [peptide 111-136, C-terminal peptide fragment of HARP, amino acids 111-136, acts on the ALK receptor]
- mitogenic / angiogenic activity [5]: neither mitogenic n or angiogenic
- reduction in the intra-tumoral vessels [6]: 55%
- rate of tumour growth, times less than in untreated mice ([7]; PC3 in nude mice): 4 times
- mean size of the tumours smaller than in untreated mice ([7]; day 27): 80%

B1: HARP: angiogenic heparin binding growth factor, mature protein of 136 or 139 amino acids (protein, UniProt P21246 33-168, looked up)
Pleiotrophin: GKKEKPEKKVKKSDCGEWQWSVCVPTSGDCGLGTREGTRTGAECKQTMKTQRCKIPCNWKKQFGAECKYQFQAWGECDLNTALKTRTGSLKRALHNAECQKTVTISKPCGKLTKPKPQAESKKKKKEGKKQEKMLD
- Kd [8]: 0.05 nM
- increase in the number of endothelial cells by comparison with Matrigel used by itself [3]: 3 times
